For the test, the target named is T1, Recombinant human CBP containing the bromodomain (CBP-BD (1043-1159)) (Homo sapiens, UniProt Q92793).
T1 construct: Recombinant human CBP bromodomain (CBP-BD (1043-1159)); made in house; host or cells: E. coli BL21-CodonPlus (DE3), modified pET vector
T1 sequence (Q92793 1081-1197): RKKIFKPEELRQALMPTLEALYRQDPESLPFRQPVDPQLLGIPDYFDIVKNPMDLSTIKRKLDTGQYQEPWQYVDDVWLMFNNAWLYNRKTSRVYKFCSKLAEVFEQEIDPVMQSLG
The experiment in a line: CBP Alphascreen binding assay. Particulars: read-out: CREBBP (CBP) IC50. As for the experimental part:
CBP Alphascreen Binding Assay
Binding of compounds of Formula (I) with CBP was assessed using Alphascreen™ binding assay. The inhibition of the interaction between the CBP bromodomain and its acetylated target protein was measured quantitatively using recombinant CBP, an acetylated Histone 3 peptide and AlphaScreen™ technology. In absence of inhibition of the CBP protein bound to AlphaScreen™ nickel chelate acceptor beads can interact with the acetylated Histone 3 peptide which was immobilized by the AlphaScreen™ Streptavidin coated beads. This interaction brings donor and acceptor beads in proximity. The close proximity allows the singlet oxygen produced by laser excitation of the donor beads to reach the acceptor beads and generate a luminescence signal. CBP inhibitors result in a decrease in the proximity signal through an inhibition of the CBP—acetylated peptide interaction.
Recombinant human CBP containing the bromodomain (CBP-BD (1043-1159)) was prepared and purified as described in protein expression and purification session. The peptide was human Histone H345-64K56Ac-Biotin (Anaspec CA, USA).
Protocol for CBP assay: All components are prepared in buffer composed of 50 mM HEPES pH 7.5, 50 mM NaCl, 0.01% BSA, 0.01% Triton X-100, 2 mM DTT. Test compounds and DMSO vehicle are diluted 1:50 in buffer and a 4 μL volume was transferred to an Alphaplate. 5.5 μL of CBP protein and 5.5 μL of peptide are added to wells containing 4 μL of various concentrations of test compounds of Formula (I) or DMSO vehicle in an Alphaplate (PerkinElmer GA, USA) and incubated for 1 hour at room temperature. 5 μL donor and acceptor bead mixture was then added with final concentrations of 7.5 μg/ml. 60 minutes after bead addition, Alpha signal was read on the Envision spectrometer (λEx 680 nm, λEm 520-620 nm). Final concentrations of bromodomain proteins and peptide are as shown below.
All data were normalized to the mean of 16 high and 16 low control wells on each plate. A four parameter curve fit of the following formula was then applied: Y=A+((B−A)/(1+((C/x)^D))) Where ‘A’ is the minimum, ‘B’ is the maximum, ‘C’ is the IC50 and ‘D’ is the Hill slope. Protein Expression and Purification
Recombinant human CBP bromodomain (CBP-BD (1043-1159)) was expressed in E. coli cells (in a modified pET vector) with an N-terminal six-His tag and purified using a combination of both IMAC (Ni-affinity) and size exclusion chromatography steps.
Recombinant CBP protein was expressed using the E. coli strain BL21-CodonPlus (DE3) (Agilent Technologies CA, USA). Cells were grown in Terrific Broth (TB) media to an OD600 of 0.92 at 37° C. at which temperature was reduced to 20° C., protein was induced with 1.0 mM isopropyl-β-D-thiogalactopyranoside (“IPTG”) for 20 hours and harvested by centrifugation at 8500×g for 20 minutes. Cells were re-suspended in 0.1M K2PO4 pH 8.0, 250 mM NaCl, 10% Glycerol, 0.75% NP-40, 25 mM Imidazole, with 0.2 mg/ml Lysozyme, 0.2 mM phenylmethanesulfonyl fluoride (“PMSF”), […] (“BME”), 25 μg/ml DNase I, incubated on ice for 30 minutes and lysed with a cell disruptor (MicroFluidics MA, USA). The lysate was clarified by centrifugation at 20,000×g for 1 hour. The protein was captured with Ni-NTA resin (Life Technologies, USA). Contaminating proteins were washed off with 40 mM HEPES pH 7.5, 500 mM NaCl, 5% Glycerol, 5 mM Imidazole, and 5 mM BME. Following 3× wash steps, protein was eluted using 400 mM Imidazole in 40 mM HEPES pH 7.5, 400 mM NaCl, and 5 mM BME. The protein was further purified using a size exclusion column (26/600 Superdex 200, GE Biosciences NJ, USA) in 40 mM HEPES pH 7.5, 250 mM NaCl, 5 mM BME. The protein was aliquoted and flash-frozen in liquid Nitrogen.
For the compound `Cc1ccc(S(=O)(=O)n2cc(-c3ccc(C(=O)O)cc3)c3cc(-c4c(C)noc4C)cnc32)cc1` [P-0006, 4-(5-(3,5-dimethylisoxazol-4-yl)-1-tosyl-1H-pyrrolo[2,3-b]pyridin-3-yl)benzoic acid], the IC50 lay in the range of 1 to 8 µM. In the case of `Cc1noc(C)c1-c1cnc2c(c1)c(-c1ccc(C(=O)O)cc1)cn2C(c1ccccn1)C1CC1` (stereo not drawn) [P-0007, 4-(1-(cyclopropyl(pyridin-2-yl)methyl)-5-(3,5-dimethylisoxazol-4-yl)-1H-pyrrolo[2,3-b]pyridin-3-yl)benzoic acid] it was 0.0001 to 1 µM; in that of `Cc1noc(C)c1-c1cnc2c(c1)c(-c1ccc(C(=O)O)cc1)cn2C(c1ccccn1)C1CCC1` (stereo not drawn) [P-0008, 4-(1-(cyclobutyl(pyridin-2-yl)methyl)-5-(3,5-dimethylisoxazol-4-yl)-1H-pyrrolo[2,3-b]pyridin-3-yl)benzoic acid], 0.0001 to 1 µM; in that of `Cc1noc(C)c1-c1cnc2c(CC3CCC3)cn(-c3ccc(C(=O)O)cn3)c2c1` [P-0009, 6-(3-(cyclobutylmethyl)-6-(3,5-dimethylisoxazol-4-yl)-1H-pyrrolo[3,2-b]pyridin-1-yl)nicotinic acid], 0.0001 to 1 µM. As to `Cc1noc(C)c1-c1cnc2c(CC3CC3)cn(-c3ccc(C(=O)O)cn3)c2c1` [P-0010, 6-(3-(cyclopropylmethyl)-6-(3,5-dimethylisoxazol-4-yl)-1H-pyrrolo[3,2-b]pyridin-1-yl)nicotinic acid], the IC50 was 0.0001 to 1 µM. On to `Cc1noc(C)c1-c1cnc2c(Cc3ccccn3)cn(-c3ccc(C(=O)O)cn3)c2c1` [P-0011, 6-(6-(3,5-dimethylisoxazol-4-yl)-3-(pyridin-2-ylmethyl)-1H-pyrrolo[3,2-b]pyridin-1-yl)nicotinic acid], for which the IC50 was in the range of 1 to 8 µM. Regarding `Cc1noc(C)c1-c1cnc2c(c1)c(-c1ccc(C(=O)O)cc1)cn2C(c1ccccn1)c1ccccn1` [P-0012, 4-(1-(di(pyridin-2-yl)methyl)-5-(3,5-dimethylisoxazol-4-yl)-1H-pyrrolo[2,3-b]pyridin-3-yl)benzoic acid], the IC50 lay within 0.0001 to 1 µM. In the case of `Cc1noc(C)c1-c1cnc2c(c1)c(-c1ccc(C(=O)O)cc1F)cn2[C@@H](C)c1ccccn1` [P-0097, (S)-4-(5-(3,5-dimethylisoxazol-4-yl)-1-(1-(pyridin-2-yl)ethyl)-1H-pyrrolo[2,3-b]pyridin-3-yl)-3-fluorobenzoic acid] it was 0.0001 to 1 µM. In the case of `COc1ccc(C(=O)O)cc1-n1cc(CC2CCC2)c2ncc(-c3c(C)noc3C)cc21` [P-0098, 3-(3-(cyclobutylmethyl)-6-(3,5-dimethylisoxazol-4-yl)-1H-pyrrolo[3,2-b]pyridin-1-yl)-4-methoxybenzoic acid] it was 0.0001 to 1 µM; in that of `Cc1noc(C)c1-c1cnc2c(C(=O)c3cccc(OC(F)F)c3)cn(-c3ccnc(C(=O)O)c3)c2c1` [P-0099, 4-(3-(3-(difluoromethoxy)benzoyl)-6-(3,5-dimethylisoxazol-4-yl)-1H-pyrrolo[3,2-b]pyridin-1-yl)picolinic acid], 0.0001 to 1 µM; in that of `Cc1noc(C)c1-c1cnc2c(Cc3cccc(OC(F)F)c3)cn(-c3ccnc(C(=O)O)c3)c2c1` [P-0100, 4-(3-(3-(difluoromethoxy)benzyl)-6-(3,5-dimethylisoxazol-4-yl)-1H-pyrrolo[3,2-b]pyridin-1-yl)picolinic acid], 0.0001 to 1 µM.

Take `Cc1noc(C)c1-c1cnc2c(c1)c(-c1cccc(C(=O)O)c1)cn2CC1CC(F)(F)C1` [P-0101, 3-(1-((3,3-difluorocyclobutyl)methyl)-5-(3,5-dimethylisoxazol-4-yl)-1H-pyrrolo[2,3-b]pyridin-3-yl)benzoic acid]: the IC50 lay in the range of 0.0001 to 1 µM. Regarding `Cc1noc(C)c1-c1cnc2c(c1)c(-c1cccc(C(=O)O)c1)cn2CC1(C)COC1` [P-0102, 3-(5-(3,5-dimethylisoxazol-4-yl)-1-((3-methyloxetan-3-yl)methyl)-1H-pyrrolo[2,3-b]pyridin-3-yl)benzoic acid], the IC50 was in the range of 1 to 8 µM. In the case of `COc1cc(C(=O)O)cc(OC)c1-c1cn([C@@H](C)c2ccccn2)c2ncc(-c3c(C)noc3C)cc12` [P-0103, (S)-4-(5-(3,5-dimethylisoxazol-4-yl)-1-(1-(pyridin-2-yl)ethyl)-1H-pyrrolo[2,3-b]pyridin-3-yl)-3,5-dimethoxybenzoic acid] it was 0.0001 to 1 µM; in that of `Cc1noc(C)c1-c1cnc2c(CC3CCC3)cn(-c3ccc(C#N)c(C(=O)O)c3)c2c1` [P-0104, 2-cyano-5-(3-(cyclobutylmethyl)-6-(3,5-dimethylisoxazol-4-yl)-1H-pyrrolo[3,2-b]pyridin-1-yl)benzoic acid], 0.0001 to 1 µM. Then `Cc1noc(C)c1-c1cnc2c(CC3CCC3)cn(-c3ccc(C(=O)O)c(C#N)c3)c2c1` [P-0105, 2-cyano-4-(3-(cyclobutylmethyl)-6-(3,5-dimethylisoxazol-4-yl)-1H-pyrrolo[3,2-b]pyridin-1-yl)benzoic acid], with 0.0001 to 1 µM; and `Cc1noc(C)c1-c1cnc2c(c1)c(-c1cncc(C(=O)O)n1)cn2[C@@H](C)c1ccccn1` [P-0106, (S)-6-(5-(3,5-dimethylisoxazol-4-yl)-1-(1-(pyridin-2-yl)ethyl)-1H-pyrrolo[2,3-b]pyridin-3-yl)pyrazine-2-carboxylic acid], with 1 to 8 µM; and `Cc1noc(C)c1-c1cnc2c(c1)c(-c1nccc(C(=O)O)n1)cn2[C@@H](C)c1ccccn1` [P-0107, (S)-2-(5-(3,5-dimethylisoxazol-4-yl)-1-(1-(pyridin-2-yl)ethyl)-1H-pyrrolo[2,3-b]pyridin-3-yl)pyrimidine-4-carboxylic acid], with 1 to 8 µM. For `CCOc1cc(C(=O)O)cc(F)c1-n1cc(CC2CCC2)c2ncc(-c3c(C)noc3C)cc21` [P-0108, 4-(3-(cyclobutylmethyl)-6-(3,5-dimethylisoxazol-4-yl)-1H-pyrrolo[3,2-b]pyridin-1-yl)-3-ethoxy-5-fluorobenzoic acid], the IC50 lay within 0.0001 to 1 µM.

On to `CCOc1cc(C(=O)O)cc(OCC)c1-n1cc(CC2CCC2)c2ncc(-c3c(C)noc3C)cc21` [P-0109, 4-(3-(cyclobutylmethyl)-6-(3,5-dimethylisoxazol-4-yl)-1H-pyrrolo[3,2-b]pyridin-1-yl)-3,5-diethoxybenzoic acid], for which the IC50 fell in the range of 0.0001 to 1 µM. `Cc1noc(C)c1-c1cnc2c(CC3CCC3)cn(-c3ccc(C(=O)O)c4ccoc34)c2c1` [P-0110, 7-(3-(cyclobutylmethyl)-6-(3,5-dimethylisoxazol-4-yl)-1H-pyrrolo[3,2-b]pyridin-1-yl)benzofuran-4-carboxylic acid]: the IC50 fell in the range of 0.0001 to 1 µM. Then `Cc1noc(C)c1-c1cnc2c(CC3CCC3)cn(-c3c(OC(C)C)cc(C(=O)O)cc3OC(C)C)c2c1` [P-0111, 4-(3-(cyclobutylmethyl)-6-(3,5-dimethylisoxazol-4-yl)-1H-pyrrolo[3,2-b]pyridin-1-yl)-3,5-diisopropoxybenzoic acid], with 0.0001 to 1 µM; and `Cc1noc(C)c1-c1cnc2c(c1)c(-c1ccc(C(=O)O)cc1OC(C)C)cn2[C@@H](C)c1ccccn1` [P-0112, (S)-4-(5-(3,5-dimethylisoxazol-4-yl)-1-(1-(pyridin-2-yl)ethyl)-1H-pyrrolo[2,3-b]pyridin-3-yl)-3-isopropoxybenzoic acid], with 0.0001 to 1 µM; and `CCCOc1cc(C(=O)O)ccc1-c1cn([C@@H](C)c2ccccn2)c2ncc(-c3c(C)noc3C)cc12` [P-0113, (S)-4-(5-(3,5-dimethylisoxazol-4-yl)-1-(1-(pyridin-2-yl)ethyl)-1H-pyrrolo[2,3-b]pyridin-3-yl)-3-propoxybenzoic acid], with 0.0001 to 1 µM.
